# Tested on: RSV (Long)
# Assay: RSV cytopathic effect (CPE)-based viral replication assay in HEp-2 cells
# Conditions: human respiratory syncytial virus, 72 h; HEp-2 cells infected with RSV Long at MOI 0.015, 3 days, cell viability by CellTiter-Glo; read-out: Ec50 (nM) Example A
# Procedure: Compounds of the invention are initially tested in a cytopathic effect (CPE)-based viral replication assay using immortalized cells and a laboratory strain of RSV (Long). This assay evaluates the ability of a compound to inhibit viral replication. Assay plates are prepared by seeding 2,500 HEp-2 cells (ATCC) per well of a 384-well black clear-bottom plate (Greiner Bio-One) in 20 μL of assay media (defined as DMEM supplemented with 2% heat-inactivated fetal bovine serum and 1% Penicillin/Streptomycin). Assay plates are incubated overnight at 37° C. in an incubator containing 5% CO2. The following day, a 10-point serial dilution of test compound is prepared in DMSO. Compounds are subsequently diluted with assay media and 20 μL of diluted compound (containing 1.5% DMSO) is transferred to an assay plate for evaluation of antiviral activity. For the CPE assay, cells are infected at a MOI of 0.015 using 20 μL of RSV Long (ATCC) diluted in assay media. The DMSO concentration is constant throughout the assay plate, including the negative and positive controls. The assay plate is incubated for 3 days at 37° C. in an incubator containing 5% CO2. Cell viability is evaluated with the addition of 10 μL of CellTiter-Glo (ProMega). Luminescence is measured using an EnVision plate reader (Perkin Elmer). EC50 values are calculated using the raw data from the CPE assays, respectively.
row,SMILES,EC50
1,O=c1n(Cc2nc(OCCCO)c3ccccc3n2)c2cnccc2n1C1CC1 [Compound 1002],260 nM
2,O=c1n(Cc2nc(CCCCO)c3ccccc3n2)c2ccccc2n1C1CC1 [Compound 1016],1100 nM
3,Cc1ccc2c(OCC3CCOC3)nc(Cn3c(=O)n(C4CC4)c4ccncc43)nc2c1 (stereo not shown) [Compound 1034],28 nM
4,N#Cc1ccc2nc(Cn3c(=O)n(C4CC4)c4ccncc43)nc(OCC3CCOC3)c2c1 (stereo not shown) [Compound 1036],140 nM
5,Cn1cc(-c2ccc3c(OCC4CCOC4)nc(Cn4c(=O)n(C5CC5)c5ccncc54)nc3c2)cn1 (stereo not shown) [Compound 1043],6400 nM
6,CS(=O)(=O)CCCOc1nc(Cn2c(=O)n(C3CC3)c3ccncc32)nc2cc(Cl)ccc12 [Compound 1065],43 nM
7,O=c1n(Cc2nc(OCCCO)c3ccccc3n2)c2ccccc2n1C1CC1 [Compound 1069],1200 nM
8,Cc1cc2n(Cc3nc(OCC4CCOC4)c4cc(C#N)ccc4n3)c(=O)c3ccccc3n2n1 (stereo not shown) [Compound 1074],2.8 nM
9,O=c1n(Cc2nc(OC3CCOC3)c3ccc(Cl)cc3n2)c2c[n+]([O-])ccc2n1C1CC1 (stereo not shown) [Compound 1104],130 nM
10,CN(Cc1cnn(C)c1)c1nc(Cn2c(=O)n(C3CC3)c3ccccc32)nc2ccccc12 [compound 1005],970 nM
11,O=c1n(Cc2nc(OCC3CCOC3)c3ccccc3n2)c2ncccc2n1C1CC1 (stereo not shown) [compound 1020],450 nM
12,Cc1cc2n(Cc3nc(N(C)Cc4cnn(C)c4)c4ccccc4n3)c(=O)c3ccccc3n2n1 [compound 1027],10 nM
13,Cc1cc2n(Cc3nc(OCC4CCOC4)c4ccc(Br)cc4n3)c(=O)c3ccccc3n2n1 (stereo not shown) [compound 1047],1700 nM
14,O=c1n(Cc2nc(OCC3CCOC3)c3cc(Cl)ccc3n2)c2cnccc2n1C1CC1 (stereo not shown) [compound 1054],600 nM
15,O=c1n(Cc2nc(OC3CCOC3)c3ccc(Cl)cc3n2)c2cnccc2n1C1CC1 (stereo not shown) [compound 1061],29 nM
16,O=c1n(Cc2nc(OC3COC3)c3ccc(Cl)cc3n2)c2cnccc2n1C1CC1 [compound 1068],63 nM
17,Cc1cc2n(Cc3nc(OCC4CCOC4)c4ccccc4n3)c(=O)c3ccccc3n2n1 (stereo not shown) [compound 1070],16 nM
18,O=C1CCCN1CCOc1nc(Cn2c(=O)n(C3CC3)c3ccncc32)nc2cc(Br)ccc12 [compound 1081],280 nM
19,O=c1n(Cc2nc(OCC3CCOC3)c3c(Cl)cccc3n2)c2cnccc2n1C1CC1 (stereo not shown) [compound 1085],280 nM
20,O=c1n(Cc2nc(OCC3CCOC3)c3cccc(Cl)c3n2)c2cnccc2n1C1CC1 (stereo not shown) [compound 1090],710 nM
21,O=c1n(Cc2nc(OCC3CCOC3)c3ccc(Cl)cc3n2)c2cnccc2n1C1CCOCC1 (stereo not shown) [compound 1095],380 nM
22,O=c1n(Cc2nc(OCC3CCOC3)c3ccc(Cl)cc3n2)c2cnccc2n1C1CCS(=O)(=O)C1 (stereo not shown) [compound 1096],300 nM
23,Cc1ncc2n(Cc3nc(OC4CCOC4)c4ccccc4n3)c(=O)c3ccccc3n12 (stereo not shown) [compound 1097],93 nM

row,SMILES,EC50
1,Cc1ncn2c3ccccc3c(=O)n(Cc3nc(OC4CCOC4)c4ccccc4n3)c12 (stereo not shown) [compound 1100],25 nM
2,N#Cc1cc2ccccc2n(Cc2nc(OC3CCOC3)c3ccccc3n2)c1=O (stereo not shown) [compound 1108],1600 nM
3,CN(CC1CCOC1)c1nc(Cn2ccc3nccn3c2=O)nc2ccccc12 (stereo not shown) [compound 1119],7700 nM
4,Cc1cc2n(Cc3nc(N(C)CC4CCOC4)c4ccccc4n3)c(=O)c3ccccc3n2n1 (stereo not shown) [compound 1140],26 nM
5,Cn1c(=O)n(Cc2nc(OCC3CCOC3)c3ccccc3n2)c2ccccc21 (stereo not shown) [compound 1142],480 nM
6,Cc1cc(CN(C)c2nc(Cn3c(=O)n(C4CC4)c4ccncc43)nc3ccccc23)on1 [compound 1163],590 nM
7,Cc1cc(CN(C)c2nc(CN3C(=O)N(C4CC4)Cc4ccccc43)nc3ccccc23)on1 [compound 1164],1000 nM
8,Cc1cc(CN(C)c2nc(Cn3c(=O)c4ccccc4c4ccccc43)nc3ccccc23)on1 [compound 1168],280 nM
9,CN(Cc1cnn(C)c1)c1nc(Cn2c(=O)c3ccccc3n3ncc(C#N)c23)nc2ccccc12 [compound 1179],400 nM
10,Cc1cc2n(Cc3nc(NC(C)c4cnn(C)c4)c4ccccc4n3)c(=O)c3ccccc3n2n1 (stereo not shown) [compound 1180],1400 nM
11,CN(Cc1cnn(C)c1)c1nc(Cn2c(=O)c3ccccc3n3cncc23)nc2ccccc12 [compound 1183],470 nM
12,O=c1c2ccccc2n2nccc2n1Cc1nc(OC2CCOC2)c2ccccc2n1 (stereo not shown) [compound 1198],21 nM
13,CCc1cc2n(Cc3nc(OC4CCOC4)c4ccccc4n3)c(=O)c3ccccc3n2n1 (stereo not shown) [compound 1199],8.8 nM
14,O=c1c2ccccc2n2nncc2n1Cc1nc(OC2CCOC2)c2ccccc2n1 (stereo not shown) [compound 1200],29 nM
15,Cc1c(C#N)c(=O)n(Cc2nc(OC3CCOC3)c3ccccc3n2)c2ccccc12 (stereo not shown) [compound 1204],79 nM
16,Cc1cc2n(Cc3nc(OC4CCOC4)c4ccccc4n3)c(=O)c3ccccc3n2n1 (stereo not shown) [compound 1205],6.6 nM
17,O=c1n(Cc2nc(OC3CCOC3)c3ccccc3n2)c2cnccc2n1C1CC1 (stereo not shown) [compound 1206],110 nM
18,Cc1cc2n(Cc3nc(N(C)Cc4cnn(C)c4)c4ccccc4n3)c(=O)c3ccncc3n2n1 [compound 1212],15 nM
19,COc1cccc2c(=O)n(Cc3nc(N(C)Cc4cnn(C)c4)c4ccccc4n3)c3cc(C)nn3c12 [compound 1215],31 nM
20,O=c1n(Cc2nc(OC3CCOC3)c3ccc(Cl)cc3n2)c2cccnc2n1C1CC1 (stereo not shown) [compound 1218],380 nM
21,O=c1n(Cc2nc(OC3CCOC3)c3ccc(Cl)cc3n2)c2ncccc2n1C1CC1 (stereo not shown) [compound 1219],200 nM
22,O=c1n(Cc2nc(OC3CCOC3)c3ccccc3n2)c2ncccc2n1C1CC1 (stereo not shown) [compound 1221],170 nM
23,O=c1n(Cc2nc(OCC3CCOC3)c3ccccc3n2)c2cccnc2n1C1CC1 (stereo not shown) [compound 1222],490 nM
